Assay results published in patent US20100113610A1, “METHODS FOR CONTROLLING INFLAMMATORY AND IMMUNOLOGICAL DISEASES” (Purdue Research Foundation, priority 2007, published 2010).

Assays:
FoxP3 [1] = assay: FoxP3 induction in activated neonatal human cord blood CD4+CD25- naive T cells (RT-PCR, flow cytometry); assay type: cell-based; conditions: for optimal concentration for induction of FoxP3: human cord blood CD4+CD25- T cells; for induction of FoxP3+ T cells by single agent: ATRA 2 nM or TGF-β1 2 ng/ml
Experimental: All-trans-retinoic acid (ATRA), a major vitamin A metabolite, induces FoxP3 expression in T cells. FoxP3 is the master transcription factor for CD4^+CD25^+ regulatory T cells. […] Neonatal human cord blood CD4^+CD25^− naïve T cells were cultured in a T cell activation condition with IL-2 (25 U/ml) and phytohemagglutinin (PHA, 5 μg/m) in the presence or absence of all-trans retinoic acid (ATRA, 2 nM) for 6 days. Naïve CD4^+CD25^− T cells were activated in the absence and presence of ATRA, and examined for expression of FoxP3 mRNA and protein by RT-PCR analysis (FIG. 1A), flow cytometry analysis (FIG. 1B) and dose-dependent induction of FoxP3 by ATRA (FIG. 1C).
As RARα can be induced in T cells in response to ATRA, the function of this receptor in induction of FoxP3 was examined using an RARα antagonist, Ro41-5253. […] FoxP3 protein expression in CD4 T cells, determined by intracellular staining by PE-labeled anti-FoxP3 antibody, is shown as FACS dot plots (FIG. 3A) and graphs (FIG. 3B). Neonatal human cord blood CD4^+CD25^− T cells were cultured in a T cell activation condition with IL-2 (25 U/ml ) and PHA (5 μg/ml) in the presence and absence of indicated agonists or antagonists for 6 days. The concentrations used to obtain the data were 2 nM (ATRA), 1 μM (Ro41-5253), 5 nM (AM-580), and 10 μM (methoprene acid).
TGF-β is a potent inducer of FoxP3 (Chen et al., 2003, J Exp Med). Therefore, the interaction between ATRA and TGF-β in their effects on FoxP3 expression was examined. […] Neonatal human cord blood CD4^+CD25^− T cells were cultured in a T cell activation condition with IL-2 (100 U/ml) and PHA (5 μg/ml) in the presence and absence of indicated agonists or antagonists for 6 days. Ro41-5253 is a RARα antagonist. […] ATRA was used at 2 nM.

FoxP3 [2] = assay: FoxP3 induction in mouse DO11.10 (Rag2-/-) CD4+CD25- T cells; assay type: cell-based; conditions: for induction of FoxP3 in mouse T cells: irradiated splenocytes, OVA 323-339 peptide, IL-2 100 U/ml
Experimental: It was determined if ATRA could induce FoxP3 in mouse T cells. […] These CD4^+ CD25^− T cells were cultured in a T cell activation condition (irradiated splenocytes with […] of OVA 323-339 antigen peptide and 100 U/ml of IL-2) in the presence or absence of ATRA. […] Other retinoids such as AM-580 (a RARα agonist) and methoprene acid (a RXR agonist) were also tested.

FoxP3 [3] = assay: Conversion of mouse naive T cells into mucosal tissue homing FoxP3+ T cells with ATRA and cytokines; assay type: cell-based; conditions: 6-7 days
Experimental: Also provided is a method with which almost all of naïve T cells can be converted into mucosal tissue homing FoxP3^+ T cells by utilizing ATRA and cytokines. Mouse naïve T cells were cultured with ATRA (1-100 nM), IL-2 (10-1000 U/ml) and TGF-β1 (1-100 ng/ml), together with TCR activators (concanavalin A or PHA at 1-10 μg/ml) for 6-7 days. […] This method reproducibly generates 92-99% pure mucosal tissue homing FoxP3^+ T cells.

granzymes = assay: Expression of granzyme A, granzyme B and perforin in induced FoxP3+ T cells; assay type: cell-based, human; conditions: for granzyme A expression in induced FoxP3+ cells: FoxP3+ T cells from cord blood CD4+CD25- T cells
Experimental: Regulatory T cells may use a number of different effector mechanisms to suppress target cells. Granzymes are a class of such effector molecules implicated in regulatory function. […] FoxP3^+ T cells, generated from cord blood CD4^+CD25^− T cells with ATRA, were examined for their expression of granzyme A, granzyme B and perforin. Also included were FoxP3^+T cells, generated with IL-2 (control) or IL-2 (25 U/ml) and TGF-β (2 ng/ml). Expression of granzyme A and B is shown in panel A. Three independent experiments were combined and averages and SEM are shown (panel B).

CD4+CD25- T cells = assay: 3H-thymidine incorporation assay: proliferation and suppression of CD4+CD25- target T cells in co-culture; assay type: cell-based, human; conditions: treated 6-7 days
Experimental: ATRA-treated T cells are suppressor cells with unique effector molecules. Generally, regulatory T cells are hypo-proliferative and can suppress the proliferation of target T cells (CD4^+CD25^− T cells) in co-culture. It was therefore determined if the ATRA-induced FoxP3^+ cells had these features. […] Freshly isolated CD4^+CD25^− T cells were cultured with ATRA (2 nM), TGF-p31 (2 ng/ml) or ATRA+TGF-β1 in a T cell activation condition (IL-2 +PHA) for 6-7 days. Then, the T cells were co-cultured with CD4^+CD25^− cells for 5 additional days. A 3H-thymidine incorporation assay was performed to assess the proliferation potentials of the cultures.

RARα = assay: RT-PCR of RAR and RXR mRNA expression in CD4+CD25- T cells activated in ATRA; assay type: cell-based, human; conditions: ATRA 2 nM, IL-2 + PHA, 6 days; 6 RAR and RXR receptors
Experimental: RARα, RARβ and RARγ are the major receptors that are likely to mediate the function of ATRA. The mRNA expression of RARs and RXRs in freshly isolated CD4^+CD25^+ and CD4^+CD25^− T cells was determined, as well as in CD4^+CD25^−T cells activated in ATRA. Neonatal human cord blood CD4^+CD25^− naïve T cells were cultured in a T cell activation condition with IL-2 (25 U/ml) and PHA (5 μg/ml) in the presence or absence of ATRA (2 nM) for 6 days. Freshly isolated CD4^÷CD25^+ and CD4^+CD25^− cells are shown for comparison. RT-PCR was performed, and a representative set of results out of 4 independent experiments are shown.

FoxP3 [4] = assay: FoxP3 induction in activated neonatal human cord blood CD4+CD25- naive T cells (RT-PCR, flow cytometry); assay type: cell-based; conditions: very high concentration (20 μM), IL-2 + PHA, 6 days
[5] = system: α4β7+ mucosal tissue homing FoxP3+ T cells; assay: Intestinal FoxP3+ T cell numbers in mice fed food with or without vitamin A; assay type: in vivo, mouse; conditions: 6 weeks
Experimental: Regulation of mucosal FoxP3^+ cell numbers by vitamin A in vivo and in vitro. The in vivo effect of vitamin A on numbers of intestinal FoxP3^+ T cells was determined. Adult mice were fed with food with (control mice) or without vitamin A for 6 weeks, and then the numbers of FoxP3^+ T cells in small and large intestine, and mesenteric lymph nodes were determined by flow analysis (FIG. 11A).

CC1(C)CCC(C)(C)c2cc(C(=O)Nc3ccc(C(=O)O)cc3)ccc21 [AM-580]
induction of FoxP3 by RARα-specific agonist (FoxP3 [1]; AM-580 5 nM, IL-2 + PHA, 6 days): able to induce FoxP3 | optimal concentration for induction of FoxP3 (FoxP3 [1]; IL-2 + PHA, 6 days): 5 nM | induction of FoxP3 in mouse T cells (FoxP3 [2]): good inducer of FoxP3 at low concentrations

CC1=C(/C=C/C(C)=C/C=C/C(C)=C/C(=O)O)C(C)(C)CCC1 [ATRA, All-trans-retinoic acid]
effect of ATRA added to the culture with TGF-β on FoxP3+ T cell induction (FoxP3 [1]; ATRA 2 nM + TGF-β1 2 ng/ml, IL-2 100 U/ml + PHA, 6 days): enhanced the effect of TGF-β | induction of FoxP3+ T cells by single agent (FoxP3 [1]; IL-2 100 U/ml + PHA, 6 days): clear effects | levels of FoxP3 mRNA expression (RT-PCR) (FoxP3 [1]; ATRA 2 nM with IL-2 25 U/ml and PHA, 6 days, versus IL-2 alone): increased compared to IL-2 alone | FoxP3+ cells at the protein level (flow cytometry) (FoxP3 [1]; ATRA 2 nM with IL-2 and PHA, 6 days, presence versus absence of ATRA): significantly more | optimal concentration for induction of FoxP3 (FoxP3 [1]; IL-2 + PHA, 6 days): 2 to 10 nM | T cells after culture that were FoxP3+ regulatory T cells expressing the mucosal tissue homing receptor (FoxP3 [3]; ATRA 1-100 nM, IL-2 10-1000 U/ml, TGF-β1 1-100 ng/ml, TCR activators): ~95% | purity of mucosal tissue homing FoxP3+ T cells reproducibly generated (FoxP3 [3]; ATRA, IL-2, TGF-β1 and TCR activators): 92-99% | induction of FoxP3 in mouse T cells (FoxP3 [2]): induced FoxP3 expression in T cells | trafficking receptors of mouse FoxP3+ T cells primed in retinoic acid (FoxP3 [2]; mouse DO11.10 T cells): expressed the mucosal tissue homing receptors CCR9 and α4β7 | granzyme A expression in induced FoxP3+ cells (granzymes): expressed granzyme A | granzyme B or perforin-expressing cells among induced FoxP3+ cells (granzymes; versus TGF-β induced FoxP3+ cells): Consistently more | suppressive activity of treated T cells on CD4+CD25- T cells (CD4+CD25- T cells; co-cultured 5 additional days): levels similar to that of TGF-β1-treated cells | proliferation potential of treated T cells (3H-thymidine incorporation) (CD4+CD25- T cells; compared to fresh CD4+CD25- cells and cultured control cells): low proliferation potential | RAR and RXR family receptor mRNA expression in response to ATRA (RARα): most highly expressed receptor in response to ATRA was RARα

CCCCCCCOc1cc2c(cc1/C(C)=C/c1ccc(C(=O)O)cc1)C(C)(C)CCS2(=O)=O [Ro41-5253]
suppression of the FoxP3+ cell induction effect of ATRA (FoxP3 [1]; Ro41-5253 1 μM, ATRA 2 nM, 6 days): completely suppressed | blocking of ATRA-induced versus TGF-β-induced FoxP3 induction (FoxP3 [1]; Ro41-5253, ATRA 2 nM, TGF-β1 2 ng/ml): blocked only ATRA-induced but not TGF-β-induced FoxP3 induction

COC(C)(C)CCCC(C)C/C=C/C(C)=C/C(=O)O (centres unmarked) [methoprene acid]
induction of FoxP3 by pan-RXR agonist (FoxP3 [4]): only marginal effects | induction of FoxP3 in mouse T cells (FoxP3 [2]): able to induce FOXP3 only at very high concentrations | optimal dose for induction of FOXP3 in mouse T cells (FoxP3 [2]; mouse DO11.10 T cells): ~100 µM

TGF-β: a potent inducer of FoxP3 (cytokine)
induction of FoxP3+ T cells by single agent (FoxP3 [1]; IL-2 100 U/ml + PHA, 6 days): clear effects | granzyme A expression in induced FoxP3+ cells (granzymes): did not express granzyme A at significant levels

vitamin A
numbers of α4β7+ mucosal tissue homing FoxP3+ T cells in the large and small intestines ([5]; vitamin A-deficient food versus control food with vitamin A): significantly smaller numbers | numbers of FoxP3+ T cells in lymph nodes (MLN) ([5]; vitamin A-deficient food versus control food): no reduction
